From US20020111274A1, “1-alkyl-3-[1-(substituted phenyl) benzotriazol-6-yl] uracils” (BASF Aktiengesellschaft, priority 2000, published 2002)

Assays:
ZEAMX Corn, Field = test: Preemergence herbicidal evaluation, ZEAMX; type: in vivo, Zea mays, L. (Sammel-Bezeichnung); set-up: scale not given here; conditions: preemergence
Outline: (§1)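 Preemergence soil spray: aqueous acetone, ~0.013–0.800 kg/ha, applied right after sowing (seed/potting-soil mix over ~1 in soil). Greenhouse, routine watering. Scored 4–5 wk post-treatment on a rating scale.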

[1] = tested on: CHEAL Lambsquarters, Common; test: Postemergence herbicidal evaluation, CHEAL; type: in vivo, Chenopodium album, L.; set-up: scale not given here; conditions: postemergence spray, rated about two-three weeks after treatment
Outline: (§2)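 Seedlings grown about two weeks were sprayed with compound in 80/20 acetone/water containing 1.0% methylated seed oil, at the equivalent of about 0.006 to 0.400 kg/ha, through a nozzle at 40 psi. Plants were kept in the greenhouse and rated visually about two to three weeks after treatment.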

GLXMAW Soybean, Williams = test: Preemergence herbicidal evaluation, GLXMAW; type: in vivo, Glycine max, (L.) Merr. cv Williams; set-up: scale not given here; conditions: preemergence
Outline: as §1

ORYSAT Rice, Tebonnet [2] = test: Preemergence herbicidal evaluation, ORYSAT; type: in vivo, Oryza sativa, (L.); set-up: scale not given here; conditions: preemergence
Outline: as §1

[3] = tested on: CHEAL Lambsquarters, Common; test: Preemergence herbicidal evaluation, CHEAL; type: in vivo, Chenopodium album, L.; set-up: scale not given here; conditions: preemergence
Outline: as §1

[4] = tested on: IPOHE Morningglory, Ivyleaf; test: Preemergence herbicidal evaluation, IPOHE; type: in vivo, Ipomoea hederacea, (L.) Jacq.; set-up: scale not given here; conditions: preemergence
Outline: as §1

AMBEL Ragweed, Common = test: Postemergence herbicidal evaluation, AMBEL; type: in vivo, Ambrosia artemisifolia, L.; set-up: scale not given here; conditions: postemergence spray, rated about two-three weeks after treatment
Outline: as §2

[5] = tested on: TRZAWR Wheat, Winter, cv Riband; test: Preemergence herbicidal evaluation, TRZAWR; type: in vivo, Triticum aestivum; set-up: scale not given here; conditions: preemergence
Outline: as §1

GALAP Galium = test: Preemergence herbicidal evaluation, GALAP; type: in vivo, Galium aparine; set-up: scale not given here; conditions: preemergence
Outline: as §1

ABUTH Velvetleaf = test: Postemergence herbicidal evaluation, ABUTH; type: in vivo, Abutilon theophrasti, Medic.; set-up: scale not given here; conditions: postemergence spray, rated about two-three weeks after treatment
Outline: as §2

ORYSAT Rice, Tebonnet [6] = test: Postemergence herbicidal evaluation, ORYSAT; type: in vivo, Oryza sativa, (L.); set-up: scale not given here; conditions: postemergence spray, rated about two-three weeks after treatment
Outline: as §2

[7] = tested on: TRZAWR Wheat, Winter, cv Riband; test: Postemergence herbicidal evaluation, TRZAWR; type: in vivo, Triticum aestivum; set-up: scale not given here; conditions: postemergence spray, rated about two-three weeks after treatment
Outline: as §2

`CCc1cccc(-n2nnc3cc(F)c(-n4c(=O)cc(C(F)(F)F)n(C)c4=O)cc32)c1` [Example 29, 3-[1-(3-ethylphenyl)-5-fluoro-1H-1,2,3-benzotriazol-6-yl]-1-methyl-6-(trifluoromethyl)-2,4(1H,3H)-pyrimidinedione] gave a ZEAMX herbicidal rating (ZEAMX Corn, Field; rate 0.032 kg/ha) of 2.0, a ZEAMX herbicidal rating (ZEAMX Corn, Field; rate 0.062 kg/ha) of 4.0 and a ZEAMX herbicidal rating (ZEAMX Corn, Field; rate 0.125 kg/ha) of 5.0. For the same molecule, the “Postemergence herbicidal rating CHEAL” value ([1]; 0.008 kg/ha) was 9.0, the “Postemergence herbicidal rating CHEAL” value ([1]; 0.016 kg/ha) was 9.0 and the “Postemergence herbicidal rating CHEAL” value ([1]; 0.032 kg/ha) was 9.0. The “Postemergence herbicidal rating CHEAL” value ([1]; 0.062 kg/ha) was 9.0, the GLXMAW herbicidal rating (GLXMAW Soybean, Williams; rate 0.016 kg/ha) was 0.0 and the GLXMAW herbicidal rating (GLXMAW Soybean, Williams; rate 0.032 kg/ha) was 1.0. For the same molecule, the GLXMAW herbicidal rating (GLXMAW Soybean, Williams; rate 0.062 kg/ha) was 4.0, the GLXMAW herbicidal rating (GLXMAW Soybean, Williams; rate 0.125 kg/ha) was 5.0 and the ORYSAT herbicidal rating (ORYSAT Rice, Tebonnet [2]; rate 0.016 kg/ha) was 0.0. The ORYSAT herbicidal rating (ORYSAT Rice, Tebonnet [2]; rate 0.032 kg/ha) was 1.0, the ORYSAT herbicidal rating (ORYSAT Rice, Tebonnet [2]; rate 0.062 kg/ha) was 3.0 and the ORYSAT herbicidal rating (ORYSAT Rice, Tebonnet [2]; rate 0.125 kg/ha) was 4.0. The CHEAL herbicidal rating ([3]; rate 0.016 kg/ha) was 9.0, the CHEAL herbicidal rating ([3]; rate 0.032 kg/ha) was 9.0 and the CHEAL herbicidal rating ([3]; rate 0.062 kg/ha) was 9.0. For the same molecule, the CHEAL herbicidal rating ([3]; rate 0.125 kg/ha) was 9.0, the IPOHE herbicidal rating ([4]; rate 0.016 kg/ha) was 0.0 and the IPOHE herbicidal rating ([4]; rate 0.032 kg/ha) was 3.0. For the same molecule, the IPOHE herbicidal rating ([4]; rate 0.062 kg/ha) was 6.0, the IPOHE herbicidal rating ([4]; rate 0.125 kg/ha) was 7.0 and the “Postemergence herbicidal rating AMBEL” value (AMBEL Ragweed, Common; 0.008 kg/ha) was 7.0. The “Postemergence herbicidal rating AMBEL” value (AMBEL Ragweed, Common; 0.016 kg/ha) was 7.0, the “Postemergence herbicidal rating AMBEL” value (AMBEL Ragweed, Common; 0.032 kg/ha) was 6.0 and the “Postemergence herbicidal rating AMBEL” value (AMBEL Ragweed, Common; 0.062 kg/ha) was 9.0. It also gave a TRZAWR herbicidal rating ([5]; rate 0.016 kg/ha) of 1.0, a TRZAWR herbicidal rating ([5]; rate 0.032 kg/ha) of 1.0 and a TRZAWR herbicidal rating ([5]; rate 0.062 kg/ha) of 2.0. For the same molecule, the TRZAWR herbicidal rating ([5]; rate 0.125 kg/ha) was 2.0, the GALAP herbicidal rating (GALAP Galium; rate 0.016 kg/ha) was 0.0 and the GALAP herbicidal rating (GALAP Galium; rate 0.032 kg/ha) was 0.0. The GALAP herbicidal rating (GALAP Galium; rate 0.062 kg/ha) was 1.0, the GALAP herbicidal rating (GALAP Galium; rate 0.125 kg/ha) was 8.0 and the “Postemergence herbicidal rating ABUTH” value (ABUTH Velvetleaf; 0.008 kg/ha) was 9.0. The “Postemergence herbicidal rating ABUTH” value (ABUTH Velvetleaf; 0.016 kg/ha) was 9.0, the “Postemergence herbicidal rating ABUTH” value (ABUTH Velvetleaf; 0.032 kg/ha) was 9.0 and the “Postemergence herbicidal rating ABUTH” value (ABUTH Velvetleaf; 0.062 kg/ha) was 9.0. The “Postemergence herbicidal rating ORYSAT” value (ORYSAT Rice, Tebonnet [6]; 0.008 kg/ha) was 2.0, the “Postemergence herbicidal rating ORYSAT” value (ORYSAT Rice, Tebonnet [6]; 0.016 kg/ha) was 2.0 and the “Postemergence herbicidal rating ORYSAT” value (ORYSAT Rice, Tebonnet [6]; 0.032 kg/ha) was 2.0. The “Postemergence herbicidal rating ORYSAT” value (ORYSAT Rice, Tebonnet [6]; 0.062 kg/ha) was 3.0, the melting point was 52 to 65 °C and the “Postemergence herbicidal rating TRZAWR” value ([7]; 0.008 kg/ha) was 2.0. For the same molecule, the “Postemergence herbicidal rating TRZAWR” value ([7]; 0.016 kg/ha) was 2.0, the “Postemergence herbicidal rating TRZAWR” value ([7]; 0.032 kg/ha) was 2.5 and the “Postemergence herbicidal rating TRZAWR” value ([7]; 0.062 kg/ha) was 3.0.
